Values quoted from earlier work, collected in patent US4127517A, “Novel docosapeptides, intermediates therefore and pharmaceutical compositions and methods employing said docosapeptides” (priority 1977, dated 1978).

Assays:
[1] = test system: brain opiate receptor sites
[2] = injected directly into the brain of the rat

**Q.** For “H-Tyr-Gly-Gly-Phe-Met-OH [methionine enkephalin]”, which “binding to partially purified brain opiate receptor sites” value [1] is on record?
**A.** The value was “binds stereo-specifically”.

**Q.** And the analgesic activity [2]?
**A.** The analgesic activity was “weak analgesic agent of short duration”.
